The test system of one data set is osteoclast proton pump. The following applies: avian osteoclast membrane vesicles; literature background; cited from earlier work.
The subject of the next data set is osteoclast cultures. The following applies: literature background; cited from earlier work.

Where only a bound is given, the exact number is not on record here.

For the compound `Cc1nc2c(OCc3ccccc3)cccn2c1CC#N` [SCH 28080], the “inhibition of proton transport” value in the data set with osteoclast proton pump was “not inhibited”.

For the compound `CCCOc1cc(C(=O)NC2CC(C)(C)NC(C)(C)C2)ccc1-c1cc2cc(Cl)c(Cl)cc2[nH]1` [Example 4, 4-(5,6-Dichloro-1H-indol-2-yl)-3-propoxy-N-(2,2,6,6-tetramethylpiperidin-4-yl)benzamide], the melting point was greater than 250 °C.

Consider `[Na+].[Na+].[Na+].[O]=[V]([O-])([O-])[O-]` [sodium orthovanadate], for which, in the data set on osteoclast proton pump, the “inhibition of proton transport” value was “not inhibited”.

Take `CC1(C)CC(NC(=O)c2ccc(-c3cc4cc(Cl)c(Cl)cc4[nH]3)c(O)c2)CC(C)(C)N1` [Example 3, 4-(5,6-Dichloro-1H-indol-2-yl)-3-hydroxy-N-(2,2,6,6-tetramethylpiperidin-4-yl)-benzamide]: the melting point was greater than 270 °C.

For the compound `CCN1C(=O)C=CC1=O` [N-ethylmaleimide (NEM), N-ethylmaleimide], the “inhibition of proton transport” value in the data set with osteoclast proton pump is “inhibited”.

As for `CO/C1=C\C(C)=C\[C@@H](C)[C@@H](O)[C@@H](C)C/C(C)=C/C=C/[C@H](OC)[C@@H]([C@@H](C)[C@@H](O)[C@H](C)[C@@]2(O)C[C@@H](O)[C@H](C)[C@@H](C(C)C)O2)OC1=O` [bafilomycin A1], the “inhibition of proton transport” value in the data set with osteoclast proton pump is listed as “inhibited”. Besides, in the data set with osteoclast cultures, the “inhibition of bone resorption” value was “able to inhibit bone resorption”.

As for `CC1(C)CC(NC(=O)c2ccc(-c3cc4cc(Cl)c(Cl)cc4[nH]3)c(OCc3ccccc3)c2)CC(C)(C)N1` [Example 2, 4-(5,6-Dichloro-1H-indol-2-yl)-3-benzyloxy-N-(2,2,6,6-tetramethylpiperidin-4-yl)-benzamide], the melting point is 220 °C.

On to `C[C@@H]1O[C@@H](O[C@H]2C[C@@H](O)[C@]3(CO)[C@H]4[C@H](O)C[C@]5(C)[C@@H](C6=CC(=O)OC6)CC[C@]5(O)[C@@H]4CC[C@]3(O)C2)[C@H](O)[C@H](O)[C@H]1O` [ouabain], for which the “inhibition of proton transport” value in the data set on osteoclast proton pump is “not inhibited”.

One may read the melting point as the temperature, or range, at which the solid turns liquid.

(Values after patent publication US6787550B1, “Indole derivatives and their use for the treatment of osteoporosis amongst other applications” (Nikem Research S.r.l., priority 1999, dated 2004).)
